Source: patent publication US20240307353A1, “JAK1 PATHWAY INHIBITORS FOR THE TREATMENT OF ASTHMA” (Incyte Corporation, priority 2023, published 2024)

Legend:
[1] = test system: cytokine production in whole blood stimulated with Dynabeads Human T-Activator CD3/CD28; assay: Whole blood assay, plasma cytokines after CD3/CD28 stimulation (MSD multiplex); assay type: cell-based; details: 0.3 μM, 1 μM, 19 hours at 37° C., n=6
Procedure: An in vitro study was conducted to investigate the impact of Compound 1 on eosinophil and neutrophil activation and cytokine production that play a role in contributing to eosinophilic and noneosinophilic (neutrophilic) asthma endotypes. Whole blood from healthy volunteers was unstimulated (Unstim) or stimulated with Dynabeads™ Human T-Activator CD3/CD28 in the absence (0) or presence (0.3 μM, 1 μM) of Compound 1 for a total of 19 hours at 37° C. Whole blood was analyzed for cell surface activation marker CD69 gated for eosinophils or neutrophils by flow cytometry (n=12). Plasma was isolated from the whole blood and analyzed for various cytokines using a MSD multiplex platform (n=6). […] Because Compound 1 inhibits the production of Th2/Th1/Th17 cytokines and reduces activation of eosinophils and neutrophils Compound 1 provides an endotype-agnostic means to treat severe asthma.
FIGS. 2-4 depict the effect of Compound 1 on cytokine levels in a whole blood assay. Plasma was isolated from whole blood samples and analyzed for Th2 cytokines (FIGS. 2A-C: IL-4, IL-5, and IL-13 respectively); Th1/Th17 cytokines (FIGS. 3A-C: IFNγ, TNFα, and IL-22 respectively), and other inflammatory cytokines/chemokines (FIGS. 4A-B: CXCL10 and IL-6 respectively). Each symbol represents a different donor. Values from individual donors are shown, along with mean value for each treatment. Data was plotted in GraphPad PRISM v.9.3.1 and analyzed by a paired t test (*:p<0.05; **:p≤0.01; ***:p≤0.001).

[2] = test system: HDM-induced severe asthma model; assay: House dust mite (HDM)-induced severe asthma model, lung mechanics after methacholine challenge; assay type: in vivo, female BALB/c mice
Procedure: (§1) In vivo studies were conducted to test Compound 1 in two models of severe asthma. The first study conducted included an experimental house dust mite (HDM)-induced severe asthma model representative of both Th2/eosinophilic and Th1/Th17/neutrophilic asthma endotypes. The second study conducted included an ovalbumin (OVA) model of acute asthma which more closely represents a Th2/eosinophilic asthma endotype. For each model, fifty-eight female BALB/c mice were randomly and prospectively assigned to six groups, one group of six, one group of twelve, and four groups of ten animals each (see Table 3).
HDM model: On Day 0, animals in Groups 2-6 were sensitized with 50 μg of HDM in an emulsion with 150 μg of complete Freund's adjuvant (CFA) in a 100 μL volume by subcutaneous injection (SC). Animals in Groups 2-6 were challenged on Day 14 with 50 μg HDM in 40 μL saline via intra-nasal instillation (IN). Group 1 served as the naïve control group. On Days 12, 13, 14, and 15, animals in Groups 2-6 were dosed according to Table 3. […] On Day 16, animals underwent methacholine challenge with lung mechanics measurements using a flexi Vent mechanical ventilator.
(§2) . Elasticity of the lung (H) shown in FIGS. 6A-B and airway resistance in small airways and alveoli (G) shown in FIGS. 7A-B were measured using a flexiVent mechanical ventilator following challenge with 25 mg/mL methacholine. Group numbers represent the following treatments: 1) naïve; 2) diseased, vehicle treated; 3) diseased, Compound 1 (1 mg/kg); […]; and 6) diseased, positive control. Data are presented as mean±SEM. n=6-12 per group. Statistical significance between groups was determined by one-way ANOVA with Dunnett's multiple comparisons test used to compare all groups to the vehicle-control group. (*:p<0.05; **:p≤0.01).

[3] = test system: OVA model of acute asthma; assay: Ovalbumin (OVA) model of acute asthma, lung mechanics after methacholine challenge; assay type: in vivo, female BALB/c mice
Procedure: as §1
OVA model: On Day 0 and Day 7, animals in Groups 2-6 were sensitized with 20 μg of OVA and 1.5 mg Alum in 100 μL volume by intraperitoneal injection (IP). Animals in Groups 2-6 were challenged on Day 13, 14, and 15 with 20 μg OVA in 50 μL PBS via intra-nasal instillation (IN). Group I served as the naïve control group. On Days 12, 13, 14, and 15, animals in Groups 2-6 were dosed according to Table 3. On Day 16, animals underwent methacholine challenge with lung mechanics measurements using a flexiVent mechanical ventilator.
as §2

[4] = target: human JAK1 (a.a. 837-1142) (Homo sapiens, UniProt P23458); assay: In vitro JAK kinase assay (HTRF), JAK1; assay type: biochemical; details: 1 mM ATP
Procedure: (§3) The catalytic activity of JAK1, JAK2 or JAK3 was assayed by measuring the phosphorylation of a biotinylated peptide. The phosphorylated peptide was detected by homogenous time resolved fluorescence (HTRF). […] Reactions were carried out at room temperature for 1 hour and then stopped with 20 μL 45 mM EDTA, 300 nM SA-APC, 6 nM Eu-Py20 in assay buffer (Perkin Elmer, Boston, MA). Binding to the Europium labeled antibody took place for 40 minutes and HTRF signal was measured on a Fusion plate reader (Perkin Elmer, Boston, MA).

[5] = target: JAK2 (a.a. 828-1132) (Homo sapiens (Human), UniProt O60674); assay: In vitro JAK kinase assay (HTRF), JAK2 versus JAK1; assay type: biochemical; details: IC50 ratio, 1 mM ATP
Sequence of JAK2 (a.a. 828-1132) (O60674 828-1132): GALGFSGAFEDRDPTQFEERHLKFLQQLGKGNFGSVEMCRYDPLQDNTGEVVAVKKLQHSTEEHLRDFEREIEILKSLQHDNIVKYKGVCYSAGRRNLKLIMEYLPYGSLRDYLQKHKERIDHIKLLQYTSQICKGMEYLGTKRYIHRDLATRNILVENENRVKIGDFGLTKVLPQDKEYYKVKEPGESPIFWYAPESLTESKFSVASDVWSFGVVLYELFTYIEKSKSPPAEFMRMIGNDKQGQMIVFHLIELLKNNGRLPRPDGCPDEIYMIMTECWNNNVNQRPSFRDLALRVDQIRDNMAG
Procedure: as §3

| Compound | IC50 [4] | JAK2/JAK1 [5] | other results |
| --- | --- | --- | --- |
| Cc1n[nH]c(C)c1-c1cnn(C2(CC#N)CN(c3cc(F)c(C(=O)N[C@@H](C)C(F)(F)F)cc3F)C2)c1 [Compound 1, 4-[3-(cyanomethyl)-3-(3′,5′-dimethyl-1H,1′H-4,4′-bipyrazol-1-yl)azetidin-1-yl]-2,5-difluoro-N-[(1S)-2,2,2-trifluoro-1-methylethyl]benzamide] | – | – | Th1 and Th17/Th22 cytokines (IFNγ, TNFα, IL-22) [1]: reduced Th1 and Th17/Th22 cytokines induced by T-cell activation in a concentration-dependent manner; inflammatory cytokines/chemokines (CXCL10, IL-6) [1]: reduced inflammatory cytokines/chemokines induced by T cell activation in a concentration-dependent manner; levels of Th2 cytokines (IL-4, IL-5, IL-13) [1]: reduced the levels of Th2 cytokines induced by T-cell activation in a concentration-dependent manner; elasticity of the lung (H) ([2]; 25 mg/mL methacholine): decreases; resistance in small airways and alveoli (G) ([2]; 25 mg/mL methacholine): decreases; airway measures (Rrs, Ers, G, H), difference between groups ([2]; 10 and 30 mg/kg, Days 12-15, methacholine challenge Day 16): no significant differences; elasticity of the lung (H) ([3]; 10 mg/kg dose): significant reduction; resistance in small airways and alveoli (G) ([3]; 10 mg/kg dose): significant reduction; elasticity of the lung (H) ([3]; 25 mg/mL methacholine): reversed the elevation; resistance in small airways and alveoli (G) ([3]; 25 mg/mL methacholine): reversed the elevation |
| CC(C)(O)c1cc(O[C@H]2CC[C@@H](N3CC(CC#N)(n4cc(-c5ncnc6[nH]ccc56)cn4)C3)CC2)nc(C(F)(F)F)c1 [Compound 20, {1-(cis-4-{[4-(1-hydroxy-1-methylethyl)-6-(trifluoromethyl)pyridin-2-yl]oxy}cyclohexyl)-3-[4-(7H-pyrrolo[2,3-d]pyrimidin-4-yl)-1H-pyrazol-1-yl]azetidin-3-yl}acetonitrile] | < 0.01 µM | >10 | – |
| N#CCC1(n2cc(-c3ncnc4[nH]ccc34)cn2)CN(C2CCN(C(=O)c3ccnc(C(F)(F)F)c3F)CC2)C1 [Compound 4, {1-{1-[3-Fluoro-2-(trifluoromethyl)isonicotinoyl]piperidin-4-yl}-3-[4-(7H-pyrrolo[2,3-d]pyrimidin-4-yl)-1H-pyrazol-1-yl]azetidin-3-yl}acetonitrile] | < 0.01 µM | >10 | – |
| N#CCC(CN1CCN(C(=O)c2ccc(C#N)cc2F)CC1)n1ccc(-c2ncnc3[nH]ccc23)c1 (stereo not shown) [Compound 9, 4-[(4-{3-cyano-2-[3-(7H-pyrrolo[2,3-d]pyrimidin-4-yl)-1H-pyrrol-1-yl]propyl}piperazin-1-yl)carbonyl]-3-fluorobenzonitrile] | < 0.01 µM | >10 | – |
| N#CC[C@]1(n2cc(-c3ncnc4[nH]ccc34)cn2)C[C@H](N2CCC(Oc3cc(CCO)cc(C(F)(F)F)n3)CC2)C1 [Compound 26, {trans-3-(4-{[4-(2-hydroxyethyl)-6-(trifluoromethyl)pyridin-2-yl]oxy}piperidin-1-yl)-1-[4-(7H-pyrrolo[2,3-d]pyrimidin-4-yl)-1H-pyrazol-1-yl]cyclobutyl}acetonitrile] | < 0.01 µM | >10 | – |
| N#CCC1(n2cc(-c3ncnc4[nH]ccc34)cn2)CN(C2CCN(C(=O)Nc3ccc(F)cc3C(F)(F)F)CC2)C1 [Compound 2, 4-{3-(Cyanomethyl)-3-[4-(7H-pyrrolo[2,3-d]pyrimidin-4-yl)-1H-pyrazol-1-yl]azetidin-1-yl}-N-[4-fluoro-2-(trifluoromethyl)phenyl]piperidine-1-carboxamide] | < 0.01 µM | >10 | – |
| N#CC[C@]1(n2cc(-c3ncnc4[nH]ccc34)cn2)C[C@H](N2CCC(Oc3cc(CN4CCC[C@H]4CO)cc(C(F)(F)F)n3)CC2)C1 [Compound 12, {trans-3-(4-{[4-{[(2S)-2-(hydroxymethyl)pyrrolidin-1-yl]methyl}-6-(trifluoromethyl)pyridin-2-yl]oxy}piperidin-1-yl)-1-[4-(7H-pyrrolo[2,3-d]pyrimidin-4-yl)-1H-pyrazol-1-yl]cyclobutyl}acetonitrile] | < 0.01 µM | >10 | – |
